# Source: patent US20230143545A1, “Treating Pulmonary Inflammatory Disease Associated With Covid-19 By Administering Resiniferatoxin” (Sorrento Therapeutics, Inc., priority 2020, published 2023)
# Entries after “also recorded” stand apart in the source; their conditions may differ.
# Assays:
# [1] = tested on: Bleo-exposed rats; test: Body weight and organ weights post-mortem in rat model of bleomycin lung injury
# Protocol: (§1) Rat Model of Lung Injury. Rats were randomized into three groups and evaluated at 1-week post-instillation as follows: sham rats, bleomycin (Bleo)-exposed rats with saline (epidural or intra-stellate injection), and Bleo-exposed rats with RTX (epidural or intra-stellate injection). Bleo (2.5 mg/kg, —0.15 mL) was instilled intra-tracheally to the lungs under 3% isoflurane anesthesia. Sham control rats underwent intra-tracheal instillation of saline. Animals were treated with RTX or vehicle (Veh; phosphate buffered saline) by either the epidural T1-T4 DRGs route (6 μg/ml, 10 μl/per ganglia) or intra-stellate ganglia administration (50μg/ml, 5 μl/per side) 3 days following Bleo delivery (FIG. 1A-B).
# Intra-stellate Injection of RTX Rats were anesthetized using 2%-3% isoflurane:oxygen mixture. […] The skin from the rostral end of the sternum to the level of third rib was incised. Portions of the superficial and deep pectoral muscles and the first intercostal muscles were cut and dissected. To localize the left or right stellate ganglion, the left or right precava vein were separated with a hooked glass or steel rod laterally away from the brachiocephalic artery to expose the internal thoracic artery and the costocervical artery, which are descending branches of the right subclavian artery. Stellate ganglia and ansa subclavia are located medially to the origins of the internal thoracic and costocervical arteries. Then, RTX (5 μl, 50 mg/ml) was injected into the ganglia with a 5-μl Hamilton syringe (Microliter #95, Hamilton, Reno, Nev., USA.) over 30 s bilaterally. […]
# (§2) Statistics. Statistical evaluation was analyzed using GraphPad Prism (GraphPad Software, San Diego, Calif. Version 8). Differences between treatments were determined using a Mixedeffects model for repeated-measures ANOVA. […]
# [2] = tested on: Bleo-exposed rats; test: Arterial blood gas analysis in rat model of bleomycin lung injury; conditions: intra-stellate RTX at day 3 after Bleo; day 7; vs. Bleo+Veh
# Protocol: as §1
# Intra-stellate Injection of RTX Rats were anesthetized using 2%-3% isoflurane:oxygen mixture. […] The skin from the rostral end of the sternum to the level of third rib was incised. Portions of the superficial and deep pectoral muscles and the first intercostal muscles were cut and dissected. To localize the left or right stellate ganglion, the left or right precava vein were separated with a hooked glass or steel rod laterally away from the brachiocephalic artery to expose the internal thoracic artery and the costocervical artery, which are descending branches of the right subclavian artery. Stellate ganglia and ansa subclavia are located medially to the origins of the internal thoracic and costocervical arteries. Then, RTX (5 μl, 50 mg/ml) was injected into the ganglia with a 5-μl Hamilton syringe (Microliter #95, Hamilton, Reno, Nev., USA.) over 30 s bilaterally. An image of this procedure is shown in FIG. 2A-B. Following these maneuvers, the thorax between the first and second intercostal spaces was closed with continuous 4-0 Dexon II coated braided absorbable polyglycolic acid suture and the skin was closed with 3-0 polypropylene suture and the chest evacuated. […]
# as §2
# [3] = tested on: Bleo-exposed rats; test: Lung tissue cytokine ELISA in rat model of bleomycin lung injury; conditions: day 7
# Protocol: as §1
# Epidural Application of RTX. The upper thoracic spinal afferents were ablated by epidural application of RTX. […] Briefly, rats were anesthetized using 2%-3% isoflurane:oxygen mixture. Rats were placed in the prone position and a small midline incision was made in the region of the T13-L1 thoracic vertebrae. Following dissection of the superficial muscles, two small holes (approximately 2 mm×2 mm) were made in the left and right sides of T13 vertebrae. A polyethylene catheter (PE-10) was inserted into the subarachnoid space via one hole and gently advanced about 4 cm approximating the T1 level. The upper thoracic sympathetic afferent ganglia were ablated by injecting resiniferatoxin (RTX; Sigma Aldrich), an ultra-potent agonist of the TRPV1 receptor into the subarachnoid space via the catheter. RTX (1 mg; Sigma Aldrich) was dissolved in a 1:1:8 mixture of ethanol, Tween 80 (Sigma-Aldrich), and isotonic saline. The first injection of RTX (6 μg/ml, 10 ul) was made at a very slow speed (˜1 minute) to minimize the diffusion of the drug. The catheter was then pulled back to T2, T3 and T4, respectively to perform serial injections (10 μl/each) at each segment. The catheter was withdrawn and the same injections were repeated on the other side. Silicone gel was used to seal the hole in the T13 vertebra. The skin overlying the muscle were closed with a 3-0 polypropylene simple interrupted suture, and betadine was applied to the wound. For post-procedure pain management, buprenorphine (0.05 mg/kg) was subcutaneously injected immediately after surgery and twice daily for 2 days.
# Intra-stellate Injection of RTX Rats were anesthetized using 2%-3% isoflurane:oxygen mixture. […] The skin from the rostral end of the sternum to the level of third rib was incised. Portions of the superficial and deep pectoral muscles and the first intercostal muscles were cut and dissected. To localize the left or right stellate ganglion, the left or right precava vein were separated with a hooked glass or steel rod laterally away from the brachiocephalic artery to expose the internal thoracic artery and the costocervical artery, which are descending branches of the right subclavian artery. Stellate ganglia and ansa subclavia are located medially to the origins of the internal thoracic and costocervical arteries. Then, RTX (5 μl, 50 mg/ml) was injected into the ganglia with a 5-μl Hamilton syringe (Microliter #95, Hamilton, Reno, Nev., USA.) over 30 s bilaterally. […] Betadine was applied to the wound and the rats were allowed to recover from the anesthesia. […]
# Cytokine Assays. Lung and plasma cytokines were measured with R&D cytokine ELISA assays (Minneapolis, Minn., USA) according to the manufacturer's instructions.
# [4] = tested on: Bleo-exposed rats; test: Lung plasma extravasation (Evans Blue) in rat model of bleomycin lung injury; conditions: day 7
# Protocol: as §1
# Epidural Application of RTX. The upper thoracic spinal afferents were ablated by epidural application of RTX. […] Briefly, rats were anesthetized using 2%-3% isoflurane:oxygen mixture. Rats were placed in the prone position and a small midline incision was made in the region of the T13-L1 thoracic vertebrae. Following dissection of the superficial muscles, two small holes (approximately 2 mm×2 mm) were made in the left and right sides of T13 vertebrae. A polyethylene catheter (PE-10) was inserted into the subarachnoid space via one hole and gently advanced about 4 cm approximating the T1 level. The upper thoracic sympathetic afferent ganglia were ablated by injecting resiniferatoxin (RTX; Sigma Aldrich), an ultra-potent agonist of the TRPV1 receptor into the subarachnoid space via the catheter. RTX (1 mg; Sigma Aldrich) was dissolved in a 1:1:8 mixture of ethanol, Tween 80 (Sigma-Aldrich), and isotonic saline. The first injection of RTX (6 μg/ml, 10 ul) was made at a very slow speed (˜1 minute) to minimize the diffusion of the drug. The catheter was then pulled back to T2, T3 and T4, respectively to perform serial injections (10 μl/each) at each segment. The catheter was withdrawn and the same injections were repeated on the other side. Silicone gel was used to seal the hole in the T13 vertebra. […]
# Lung Plasma Extravasation, Tissue Extraction, and Quantification of Evans Blue. […]
# [5] = tested on: Bleo-exposed rats; test: Plasma cytokine ELISA in rat model of bleomycin lung injury; assay type: in vivo; conditions: epidural RTX at day 3 after Bleo; day 7
# Protocol: Rat Model of Lung Injury.
# Epidural Application of RTX.
# Cytokine Assays. […] Organ weights were evaluated post-mortem.
# [6] = intra-stellate RTX at day 3 after Bleo, day 7, vs. Bleo+Veh
# [7] = epidural RTX at day 3 after Bleo, vs. Bleo
# [8] = stellate RTX at day 3 after Bleo, vs. Bleo+Veh
compound,measurement,setting,value
"C=C(C)[C@]12C[C@@H](C)[C@@]34O[C@](Cc5ccccc5)(O[C@@H]1[C@@H]3C=C(COC(=O)Cc1ccc(O)c(OC)c1)C[C@]1(O)C(=O)C(C)=C[C@@H]41)O2 [RTX, resiniferatoxin]",Ratio of WLW to BW,[1]; [6],significantly reduced
same,Wet lung weight (WLW),[1]; [6],significantly reduced
same,Body weight,[1]; stellate ganglia administration of RTX in rats with lung injury,improved
same,Arterial pCO2 (elevated by Bleo),[2],reversed these changes
same,Arterial pO2 (reduced by Bleo),[2],reversed these changes
same,Arterial sO2 (reduced by Bleo),[2],reversed these changes
same,Lung tissue IFNγ level,[3]; [7],reduced
same,Lung tissue IL-1β level,[3]; [7],reduced
same,Lung tissue IL-6 level,[3]; [7],reduced
same,Lung tissue IL-1β level,[3]; [8],significantly reduced
same,Lung tissue IL-6 level,[3]; [8],significantly reduced
same,Plasma extravasation (Evans Blue areas / concentration in lung),"[4]; epidural RTX T1-T4 (6 μg/ml, 10 μl/per ganglia) at day 3 after Bleo 2.5 mg/kg intra-tracheal, vs. Bleo",reduced
same,Plasma extravasation (Evans Blue dye in the lung),"[4]; intra-stellate RTX (50μg/ml, 5 μl/per side) at day 3 after Bleo, vs. Bleo+Veh",marked reduction; also recorded: reduced
same,Plasma cytokine levels in response to Bleo,[5],reduced
